Experiments:
[1] = biological target: T1, Tyrosinase (Agaricus bisporus, UniProt O42713); assay: Inhibition of mushroom tyrosinase using L-tyrosine as substrate pretreated for 5 mins followed by substrate addition measured over 30 mins by spectrophotometric method
T1 sequence (O42713 whole entry): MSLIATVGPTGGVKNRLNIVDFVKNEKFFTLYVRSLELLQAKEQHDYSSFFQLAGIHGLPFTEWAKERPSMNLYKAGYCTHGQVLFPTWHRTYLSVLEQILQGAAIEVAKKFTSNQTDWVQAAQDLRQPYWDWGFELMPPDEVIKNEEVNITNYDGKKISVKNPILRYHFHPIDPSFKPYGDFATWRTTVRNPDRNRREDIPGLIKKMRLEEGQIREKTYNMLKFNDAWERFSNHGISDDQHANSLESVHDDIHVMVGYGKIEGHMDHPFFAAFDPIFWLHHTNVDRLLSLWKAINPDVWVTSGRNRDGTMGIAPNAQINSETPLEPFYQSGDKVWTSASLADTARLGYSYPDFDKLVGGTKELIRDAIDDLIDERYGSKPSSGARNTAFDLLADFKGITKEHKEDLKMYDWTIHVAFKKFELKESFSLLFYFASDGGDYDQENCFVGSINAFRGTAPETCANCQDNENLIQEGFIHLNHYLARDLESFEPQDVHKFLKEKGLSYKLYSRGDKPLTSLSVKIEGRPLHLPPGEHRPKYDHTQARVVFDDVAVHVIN

[2] = biological target: T1, Tyrosinase; assay: Inhibition of mushroom tyrosinase
[3] = biological target: T1, Tyrosinase; assay: Inhibition of mushroom tyrosinase using L-DOPA as substrate measured at 1 min interval by spectrophotometric method

SMILES	IC50 [1] [µM]	IC50 [2] [µM]	IC50 [3] [µM]
COc1c(O)cc(-c2oc3cc(O)cc(O)c3c(=O)c2O[C@@H]2O[C@@H](C)[C@H](O)[C@@H](O)[C@H]2O)cc1O	310	–	–
CC(=O)O[C@@H]1[C@@H](O)[C@@H](OC(C)=O)[C@H](Oc2c(-c3cc(O)c(O)c(O)c3)oc3cc(O)cc(O)c3c2=O)O[C@H]1C	520	–	–
CC(=O)O[C@@H]1[C@@H](O)[C@@H](O)[C@H](Oc2c(-c3cc(O)c(O)c(O)c3)oc3cc(O)cc(O)c3c2=O)O[C@H]1C	280	–	–
OC[C@H]1O[C@@H](Oc2c(O)cc(O)cc2O)[C@H](O)[C@@H](O)[C@@H]1O	410	–	–
CC(=O)O[C@@H]1[C@@H](OC(C)=O)[C@@H](O)[C@H](Oc2c(-c3cc(O)c(O)c(O)c3)oc3cc(O)cc(O)c3c2=O)O[C@H]1C	180	–	–
COc1c(O)cc(-c2oc3cc(O)cc(O)c3c(=O)c2O[C@@H]2O[C@@H](C)[C@H](OC(C)=O)[C@@H](O)[C@H]2O)cc1O	190	–	–
C[C@@H]1O[C@@H](Oc2c(-c3cc(O)c(O)c(O)c3)oc3cc(O)cc(O)c3c2=O)[C@H](O)[C@H](O)[C@H]1O	120	320	–
O=c1c(O)c(-c2ccc(O)c(O)c2)oc2cc(O)cc(O)c12 [QUERCETIN]	240	–	–
C[C@@H]1O[C@@H](Oc2c(-c3ccc(O)c(O)c3)oc3cc(O)cc(O)c3c2=O)[C@H](O)[C@H](O)[C@H]1O [QUERCITRIN]	150	100	–
C[C@@H]1O[C@@H](OC[C@H]2O[C@@H](Oc3c(-c4ccc(O)c(O)c4)oc4cc(O)cc(O)c4c3=O)[C@H](O)[C@@H](O)[C@@H]2O)[C@H](O)[C@H](O)[C@H]1O [RUTIN]	130	–	70
